According to paper PMC8247983 (Chemmedchem, 2021):

Molecular target: hBChE (Homo sapiens, UniProt P06276)
Assay: Ellman's assay
Format: biochemical

Sequence of hBChE (P06276 29-602): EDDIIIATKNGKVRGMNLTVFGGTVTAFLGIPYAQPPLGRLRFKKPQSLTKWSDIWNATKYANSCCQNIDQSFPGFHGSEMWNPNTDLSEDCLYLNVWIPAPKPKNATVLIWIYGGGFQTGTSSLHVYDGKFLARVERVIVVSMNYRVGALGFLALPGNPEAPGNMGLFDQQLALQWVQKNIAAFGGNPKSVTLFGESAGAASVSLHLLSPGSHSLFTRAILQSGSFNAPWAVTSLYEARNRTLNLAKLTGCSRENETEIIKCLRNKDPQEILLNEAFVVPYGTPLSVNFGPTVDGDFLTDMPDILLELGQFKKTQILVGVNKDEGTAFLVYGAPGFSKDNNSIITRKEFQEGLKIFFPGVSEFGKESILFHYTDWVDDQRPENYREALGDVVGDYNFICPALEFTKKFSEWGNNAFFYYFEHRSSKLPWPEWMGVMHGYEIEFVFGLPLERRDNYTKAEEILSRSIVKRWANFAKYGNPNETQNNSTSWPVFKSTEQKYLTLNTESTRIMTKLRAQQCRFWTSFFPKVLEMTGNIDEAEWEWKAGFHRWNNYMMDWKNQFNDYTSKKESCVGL

Structure (SMILES): CN1c2ccc(OC(=O)NCCCCCCN3CCOC(CF)C3)cc2CN2CCc3ccccc3C21 (racemic) [compound 2, 13‐Methyl‐5,8,13,13a‐tetrahydro‐6H‐isoquinolino[1,2‐b]quinazolin‐10‐yl‐{6‐[2‐(fluoromethyl)morpholino]‐hexyl}carbamate]
- IC50: 0.0666 µM
